PMC11487760, “Cross-Species Applications of Peptide Substrate Reporters to Quantitative Measurements of Kinase Activity” (ACS Measurement Science Au, 2024)
Non-standard residues stand in square brackets, D forms with d. Residues, ends and D or L forms follow the SMILES beside them. *: point of attachment. 5FAM = O=C1OC2(c3ccc(O)cc3Oc3cc(O)ccc32)c2ccc(C(=O)*)cc21; 6FAM = O=C1OC2(c3ccc(O)cc3Oc3cc(O)ccc32)c2cc(C(=O)*)ccc21; NMeR = CN[C@@H](CCCNC(=N)N)C(=O)O; NMeA = CN[C@@H](C)C(=O)O

Key:
PKBA [1] = experiment: Phosphorylation of peptide substrate reporters in D. discoideum lysates (CE-LIF); assay type: biochemical; settings: lysates from chemotaxis-competent D. discoideum 20–30 s after 1 μM cAMP stimulation; 5 μM reporter, 2 mM ATP, 0.4–0.6 mg/mL protein, room temperature, lysis buffer with phosphatase and protease inhibitors; reactions with ≤10% total phosphorylation; MEKC CE-LIF
From the text: (§1) In addition to confirming that all three reporters were phosphorylated in lysates from both cell types, we also characterized the kinetics of the phosphorylation, which varied substantially between organisms. Using reactions with ≤10% total phosphorylation, we determined the phosphorylation rate for lysates from stimulated cells in units of zeptomoles of phosphorylated product per picogram of total protein per second (zmol pg^–1 s^–1; Table 2). […] For D. discoideum, B-5/I was the next most preferred substrate. This kinetic trend is similar to that observed in human cells. Crosstide and a truncated version of B-5/I have similar values for Vmax with human Akt1, but the KM value is about 5-fold lower for Crosstide.[25] The value of Vmax has not been determined for VI–B with Akt1, but its phosphorylation rate is known to be slower than that of B-5/I.[13]

PHK5 [2] = experiment: Phosphorylation of peptide substrate reporters in T. thermophila lysates (CE-LIF); assay type: biochemical; settings: lysates from T. thermophila 2 h into conjugation, 20–30 s after 2% proteose peptone; 5 μM reporter, 2 mM ATP, room temperature, lysis buffer with phosphatase and protease inhibitors; reactions with ≤10% total phosphorylation; MEKC CE-LIF
Procedure: (§2) For T. thermophila lysates, mating was induced by mixing equal cell numbers of B2086.2 and CU428.2 strains that had been starved for 16 h at 30 °C in unshaken Dryl’s buffer (2 mM phosphate buffer, 2 mM citrate, 1.5 mM CaCl2). Two hours after cells were mixed, microscopy was used to confirm that >75% of cells were paired. Samples were then lysed with an equal volume of ice-cold 2× lysis buffer, before and 30 s after addition of 20% proteose peptone stock to a final concentration of 2% or other stimuli as noted.
as §1

[3] = Degradation assay in freeze-thaw lysates, D. discoideum; assay type: in vitro ADME; settings: 10 μM reporter, 25 °C, CE-LIF
Procedure: (§3) Degradation assays were conducted as described previously.[38] Briefly, aliquots of vegetative cells were washed twice, resuspended in ice-cold phosphate buffered saline at a density of 2 × 10^8 cells/mL and lysed by three freeze–thaw cycles using liquid nitrogen. The resulting lysate was clarified by 5 min centrifugation at 15,000 × g, and the supernatant was stored at −80 °C. The total protein concentration was determined using a fluorescamine assay with a bovine serum albumin (BSA) calibration curve.[39] Briefly, three parts diluted lysate (or BSA standard) in 30 mM borate buffer (pH 9) and one part 3 mg/mL fluorescamine in acetone were incubated for 5 min in the dark at room temperature. The fluorescence at 475 nm was then measured using 390 nm excitation. Based on this assay, the lysate was diluted to a concentration of 3 mg/mL in phosphate buffered saline. The degradation reaction was run at 25 °C and initiated by addition of 10 μM reporter to the diluted lysate. At fixed time points, aliquots were removed, and the reaction was stopped by incubation for 4 min at 95 °C.
(§4) To study degradation kinetics, we fit the data for each full-length peptide to a first-order reaction model and determined the half-life for each peptide for three biological replicates (Figure 5b-d, Table 3). Degradation rates and half-lives varied widely between organisms and peptides; however, some general trends were apparent. For all peptides, degradation was much faster in T. thermophila than in D. discoideum. T. thermophila is known to produce and secrete cysteine proteases and is a large ([…]), fast-growing cell. […] Further characterization of protease expression in these strains may be helpful identifying the enzyme(s) primarily responsible for degradation of these reporters.

[4] = Degradation assay in freeze-thaw lysates, T. thermophila B2086.2; assay type: in vitro ADME; settings: freeze–thaw lysate of vegetative T. thermophila B2086.2 cells, 3 mg/mL total protein in PBS, no protease inhibitors, 10 μM reporter, 25 °C, CE-LIF, first-order fit, ± SD, 3 biological replicates
Procedure: as §3, §4

[5] = Degradation assay in freeze-thaw lysates, T. thermophila CU428.2; assay type: in vitro ADME; settings: T. thermophila strain CU428.2 freeze–thaw lysate, based on the first 5 min of each reaction; 3 mg/mL protein, 10 μM reporter, 25 °C, CE-LIF
Procedure: as §3
To study degradation kinetics, we fit the data for each full-length peptide to a first-order reaction model and determined the half-life for each peptide for three biological replicates (Figure 5b-d, Table 3). […]

[6] = system: intact human prostate cancer cells (LNCaP); settings: cited from earlier work
Procedure: (§5) These rates are much higher than rates obtained in intact human prostate cancer cells (LNCaP, 0.04 zmol pg^–1 s^–1)[6] and pancreatic cancer cell lines (0.02–0.1 zmol pg^–1 s^–1)[28],[50] with the same reporter. Our assays were conducted in lysates containing phosphatase inhibitors, which will increase the apparent activity of PKB by removing the effects of any opposing phosphatases. Additionally, higher phosphorylation rates may arise from differing expression levels of PKB ...

[7] = system: pancreatic cancer cell lines; settings: intact pancreatic cancer cell lines; cited from earlier work
Procedure: as §5

PKBA [8] = experiment: Effect of LY294002 treatment on reporter phosphorylation in cAMP-stimulated D. discoideum; assay type: cell-based; settings: 15 μM LY294002 for 1 min before cAMP stimulation; lysed 15 s after stimulation; 1 h social development; all three reporters; n = 3 biological replicates
Procedure: (§6) Next, we tested pharmacological treatment of D. discoideum. We treated cells for 1 min with 15 μM LY294002, a PI3K inhibitor. LY294002 has been shown previously to reduce PKBA activity in D. discoideum.[53],[55]−[57] […] The magnitude of this effect was quite similar for all three peptides; percent phosphorylation of cAMP-stimulated cells decreased to 33–34% of the untreated phosphorylation levels upon LY294002 treatment.

PKBA [9] = settings: read-out: EC50 for PKBA in D. discoideum; cited from earlier work
Procedure: as §6

PHK5 [10] = assay type: cell-based; settings: mating T. thermophila treated 20 s with 1 μM stimulus (2% for proteose peptone) prior to lysis; 15 min incubation of Crosstide in lysate; n = 2–3 biological replicates
Procedure: as §2, with “Two hours after cells were mixed, microscopy was used to confirm that >75% of cells were paired.” left out
The protein concentrations of lysates were determined using the fluorescamine assay described above, and lysates were diluted to the same final concentration (0.4–0.6 mg/mL) in 1× lysis buffer. […] Phosphorylation reactions were conducted in kinase buffer (25 mM MOPS, pH 7.4, 20 mM magnesium chloride, 25 mM glycerophosphate, 1 mM DTT).[41] The peptide substrate reporter was added to a final concentration of 5 μM, and the reaction was started by addition of a final concentration of 2 mM ATP. The reaction was run at room temperature and stopped by the addition of CE run buffer. Negative control experiments were performed by substituting deionized water for ATP or denaturing the lysate with heat before the addition of peptide.
Samples were analyzed using micellar electrokinetic chromatography (MEKC) in a PA-800 Plus capillary electrophoresis instrument (Beckman Coulter). […] The same buffer was used for phosphorylation assays of Crosstide. […] For all VI–B assays, the run buffer was 100 mM borate, 15 mM SDS, pH 11.4. The capillary was 50 μm diameter bare silica, 21 cm effective length with an applied potential of 400 V/cm. […] Peak integration was performed using 32 Karat (v. 10.1) software.
Cells were treated with a final concentration of 1 μM stimulus for 20 s prior to lysis.

[11] = freeze–thaw lysate of vegetative D. discoideum cells, 3 mg/mL total protein in PBS, no protease inhibitors, first-order fit, ± SD, 3 biological replicates

Compound: C[C@H](NC(=O)[C@H](CCCNC(=N)N)N(C)C(=O)[C@@H]1CCCN1C(=O)[C@H](CCCNC(=N)N)NC(=O)CNC(=O)c1ccc2c(c1)C1(OC2=O)c2ccc(O)cc2Oc2cc(O)ccc21)C(=O)N[C@@H](Cc1ccccc1)C(=O)N[C@H](C(=O)N[C@@H](Cc1ccccc1)C(=O)N(C)[C@@H](C)C(N)=O)[C@@H](C)O [VI–B] (6FAM-GRP[NMeR]AFTF[NMeA]-NH2)
- phosphorylation rate (PKBA [1]): 1.4 ± 0.2 zmol pg^–1 s^–1
- phosphorylation rate (PHK5 [2]): 4.1 ± 0.9 zmol pg^–1 s^–1
- initial rate of fragmentation in lysates ([3]; D. discoideum freeze–thaw lysate, based on the first 15 min of each reaction, pmol peptide per mg total protein per second, 3 mg/mL protein): 0.3 ± 0.1 pmol mg^–1 s^–1
- half-life ([3]; cells or culture medium, freeze–thaw lysate of vegetative D. discoideum cells, 3 mg/mL total protein in PBS, no protease inhibitors, first-order fit, ± SD, 3 biological replicates): 184 ± 65 min
- half-life ([4]; cells or culture medium): 22 ± 4 min
- initial degradation rate in lysates [5]: 5.1 ± 0.3 pmol mg^–1 s^–1
- phosphorylation rate [6]: 0.04 zmol pg^–1 s^–1
- phosphorylation rate [7]: 0.02–0.1 zmol pg^–1 s^–1

Compound: C[C@H](NC(=O)[C@H](C)NC(=O)[C@H](CCCNC(=N)N)NC(=O)[C@@H]1CCCN1C(=O)[C@H](CCCNC(=N)N)NC(=O)CNC(=O)c1ccc2c(c1)C1(OC2=O)c2ccc(O)cc2Oc2cc(O)ccc21)C(=O)N[C@H](C(=O)N[C@@H](Cc1ccccc1)C(=O)N[C@@H](C)C(=O)N[C@@H](CCC(=O)O)C(=O)NCC(N)=O)[C@@H](C)O [B-5/I] (6FAM-GRPRAATFAEG-NH2)
- half-life at 10 μM [3, 11]: 51 ± 4 min
- half-life at 10 μM [4]: 12 ± 4 min

Compound: O=c1cc(N2CCOCC2)oc2c(-c3ccccc3)cccc12 [LY294002]
- percent phosphorylation of cAMP-stimulated cells, as % of the untreated phosphorylation levels (PKBA [8]): 33–34%
- EC50 (PKBA [9]): 15 µM

Compound: insulin
- change in phosphorylation activity toward Crosstide after stimulus (PHK5 [10]): None of these stimuli resulted in increased phosphorylation activity

Compound: NCCc1c[nH]c2ccc(O)cc12 [serotonin]
- change in phosphorylation activity toward Crosstide after stimulus (PHK5 [10]): None of these stimuli resulted in increased phosphorylation activity

Compound: C[C@H](NC(=O)[C@H](Cc1ccccc1)NC(=O)[C@H](CO)NC(=O)[C@H](CO)NC(=O)[C@@H](NC(=O)[C@H](CCCNC(=N)N)NC(=O)[C@@H]1CCCN1C(=O)[C@H](CCCNC(=N)N)NC(=O)CNC(=O)c1ccc2c(c1)C(=O)OC21c2ccc(O)cc2Oc2cc(O)ccc21)[C@@H](C)O)C(=O)N[C@@H](CCC(=O)O)C(=O)NCC(=O)O [Crosstide] (5FAM-GRPRTSSFAEG-OH)
- half-life at 10 μM [3, 11]: 117 ± 10 min
- half-life at 10 μM [4]: 8 ± 1 min

Compound: Nc1nc2c(ncn2[C@@H]2O[C@@H]3COP(=O)(O)O[C@H]3[C@H]2O)c(=O)[nH]1 [cGMP]
- change in phosphorylation activity toward Crosstide after stimulus (PHK5 [10]): None of these stimuli resulted in increased phosphorylation activity

Compound: NCCc1c[nH]cn1 [histamine]
- change in phosphorylation activity toward Crosstide after stimulus (PHK5 [10]): None of these stimuli resulted in increased phosphorylation activity

Compound: concavalin A
- change in phosphorylation activity toward Crosstide after stimulus (PHK5 [10]): None of these stimuli resulted in increased phosphorylation activity
